{
  "source": "patent US20120059032A1",
  "about": "“1,2,3,4-TETRAHYDROISOQUINOLINE DERIVATIVES EFFECTIVE AS ANTIGLIOMA AGENTS, METHODS OF MAKING, AND THEIR USE” (University of Tennessee Research Foundation, priority 2009, published 2012)",
  "key": {"[1]": {"tested_on": "primary cultures of normal rat astrocytes", "experiment": "Screening and dose response assay (percent survival, 4 days, cresyl violet) on astrocytes", "format": "cell-based", "details": "Table 1", "description": "(§1) Screening and Dose Response Assays. […]-1-(2′-methoxybiphenyl-4-ylmethyl)-3,4-dihydro-1H-isoquinoline-2-carboxylic acid tert-butyl ester (7a; EDL-355) was synthesized as described herein in the laboratory of Dr. Duane D. Miller at The University of Tennessee Health Science Center. Briefly, the primary cultures of astrocytes and cultures of C6 glioma cell lines were handled identically with respect to treatment concentrations and manipulations of cells for the screening assays. The cells were trypsinized and transferred to 96-well plates at a cell density of 10^3 cells/mm^2 in the wells. The cells were grown overnight in 100 μL of 10% FCS BME in a 37° C. incubator containing a humid, 5% CO2 atmosphere.\n(§2) EDL-355 was dissolved completely to make a 100 μM stock solution and diluted to produce a series of concentrations.\n(§3) A 20 μL aliquot of these initial solutions was added to 180 μl of 2% FCS BME to produce the test concentration. The vehicle solution was tested as a control. […] Immediately before treatment, the 10% FCS BME was removed from the cells and replaced with the […] of the treatment medium. The cultured cells (normal primary cultures of rat brain astrocytes or C6 glioma purchased from ATCC) were incubated with test compound for 4 days. The cells were fixed with 4% paraformaldehyde, stained with 0.1% Cresylecth violet stain, and quantitated. The screening data was collected as four wells for each dose per compound (screening) or concentration (dose response curve). Also, the average growth of 8 wells with no treatment was used as a negative control for each plate (100% growth). The cells for dose response curves were grown in the same media and were handled in a similar manner as in the screening assays.\n(§4) Data Analysis. The cytotoxic character of each compound was reported as the percent survival, calculated as the average A560 for treated cells divided by A560 of untreated (100% control) cells, and expressed as a percentage. Values less than 100% indicate a cytostatic or cytotoxic effect. Dose response curves and EC50 values were attained via plots of percent survival vs. concentration."}, "C6 rat glioma cells": {"tested_on": "C6 rat glioma cells", "experiment": "Screening and dose response assay (percent survival, 4 days, cresyl violet) on C6 glioma", "format": "cell-based", "description": "as §1, §2, §3, §4"}},
  "note": "Where a name gives a salt, the structure may show the parent alone. Read-outs that look alike come from different tables or passages of the source.",
  "data": [
    {"compound": "COc1cc2c(c(OC)c1)C(Cc1ccc(-c3ccccc3OC)cc1)NCC2", "note": "(single isomer, unassigned) [12a]", "values": [
      {"measurement": "EC50", "setting": "[1]; listed as drawing 11, read-out: EC50 μM Astrocyte", "value": 15.4, "unit": "µM"},
      {"measurement": "EC50", "setting": "C6 rat glioma cells; Table 1, listed as drawing 11, read-out: EC50 μM C6", "value": 5.4, "unit": "µM"},
      {"measurement": "EC50", "setting": "C6 rat glioma cells; text b70, rat C6 glioma cell lines, listed as (−) 12a, read-out: antiglioma activity on rat C6 glioma cell lines", "value": 5.39, "unit": "µM"}
    ]},
    {"compound": "COc1cc2c(c(OC)c1)C(Cc1ccc(-c3cnccc3OC)cc1)NCC2", "note": "(stereo not drawn) [9b, 6,8-Dimethoxy-1-[4-(4-methoxypyridin-3-yl)benzyl]-1,2,3,4-tetrahydroisoquinoline dihydrochloride]", "values": [
      {"measurement": "EC50", "setting": "[1]; Rattus norvegicus, Astrocyte", "value": 13.7, "unit": "µM"},
      {"measurement": "EC50", "setting": "C6 rat glioma cells; Rattus norvegicus, Glioma cell, Table 1, read-out: EC50 μM C6", "value": 0.08, "unit": "µM"}
    ]},
    {"compound": "COc1cc2c(c(OC)c1)C(Cc1ccc(-c3ccccc3OC)cc1)NCC2", "note": "(single isomer, unassigned) [13a]", "values": [
      {"measurement": "EC50", "setting": "[1]; Rattus norvegicus, Astrocyte", "value": 13.3, "unit": "µM"},
      {"measurement": "EC50", "setting": "C6 rat glioma cells; Table 1, listed as drawing 12, read-out: EC50 μM C6", "value": 0.3, "unit": "µM"},
      {"measurement": "fold more potent than (−) 12a on rat C6 glioma cell lines", "setting": "C6 rat glioma cells; ratio of the C6 values of (−) 12a and (+) 13a", "value": "~21", "unit": "fold"},
      {"measurement": "EC50", "setting": "C6 rat glioma cells; text b70, rat C6 glioma cell lines, listed as (+) 13a, read-out: antiglioma activity on rat C6 glioma cell lines", "value": 0.26, "unit": "µM"}
    ]},
    {"compound": "COc1cc2c(c(OC)c1)C(Cc1ccc(-c3ccccc3OC)cc1)NCC2.Cl", "note": "(stereo not drawn) [9a, 6,8-Dimethoxy-1-(2′-methoxybiphenyl-4-ylmethyl)-1,2,3,4-tetrahydroisoquinoline hydrochloride]", "values": [
      {"measurement": "EC50", "setting": "[1]; Rattus norvegicus, Astrocyte", "value": 10.2, "unit": "µM"},
      {"measurement": "EC50", "setting": "[1]; hydrochloride, read-out: EC50 μM Astrocyte", "value": 8.52, "unit": "µM"},
      {"measurement": "melting point", "value": "140 to 142", "unit": "°C"}
    ]}
  ]
}
